Laboratory results taken from publication PMC7369637, “Inhibition of Resistance-Refractory P. falciparum Kinase PKG Delivers Prophylactic, Blood Stage, and Transmission-Blocking Antiplasmodial Activity” (Cell Chemical Biology, 2020).
Several values for one entry are separate records, joined by “and”; a condition that tells them apart may be missing. Equal values may be shown once.

Columns and labels:
Pf Dd2-B2 ABS parasites = assay: 72-h asexual blood stage (ABS) growth inhibition assay, Dd2-B2; type: cell-based, Plasmodium falciparum; settings: Dd2-B2 wild-type, 72 h; read-out: Mean IC50, 72 h ABS activity
Description: (§1) Synchronicity was achieved using three rounds of sorbitol treatment on early rings, spaced 48 h apart, followed by magnetic purification of segmented schizonts following the final sorbitol treatment. Parasites were highly synchronous to within a 3 h window of development. Assays were repeated on at least three independent occasions (each with technical duplicates) and statistical significance was assessed using Mann Whitney U tests.

sel. Dd2-B2 TKL3T1268R = assay: 72-h ABS assay, MMV030084-selected line; type: cell-based, Plasmodium falciparum
Description: as §1
The resulting MMV030084-resistant parasites were cloned by limiting dilution ([Baker et al., 2017]) to obtain genetically homogenous cultures for further phenotyping and whole-genome sequencing. A second round of […]. […] Drug susceptibility of resistant lines was assessed using a 72 h ABS assay as described above, and a Mann Whitney U test was applied to assess statistically significant differences.

[1] = tested on: recombinant TKL3 kinase domain; assay: Radioactive in vitro kinase assay with recombinant TKL3 kinase domain; type: biochemical, Plasmodium falciparum; settings: 20 μM compound
Description: Recombinant proteins were expressed in E. coli as previously described ([Abdi et al., 2010]). […] The cultures were then cooled to 20°C followed by induction of protein expression with 0.5 mM IPTG and further incubation at 20°C, 200 rpm for 16 h. Cultures were harvested by centrifugation at 4000g, 4°C for 10 min. Bacterial pellets were washed once in 1× PBS and were stored at −80°C. Cell pellets were resuspended in ice-cold Lysis Buffer (50 mM sodium phosphate, pH 8.0, 400 mM NaCl, 5 % (w/v) glycerol, 0.1 % (v/v) Triton X-100, 20 mM imidazole, 2 mM β-mercaptoethanol, 1× Roche protease inhibitor cocktail EDTA-free, 1 mg/ml lysozyme). Cells were disrupted by sonication. Protein was bound on a HisTrap HP column and eluted with a linear gradient of increasing imidazole concentrations. The peak fractions as determined by A280 trace were pooled together and further purified by size exclusion chromatography on a S200 gel filtration column equilibrated in 25 mM Tris pH 7.5, 100 mM NaCl, 5 % (w/v) glycerol, 1 mM DTT. Protein was pooled and concentrated. Final concentration was determined using a Bradford assay with a BSA protein standard.
Kinase assays containing 3 μg of recombinant kinase (WT or mutant) were performed in kinase assay buffer (25 mM Hepes, pH 7.5, 2 mM MnCl2, 10 mM β-glycerophosphate, 10 mM NaF, 25 μM ATP (containing 5 μCi [γ-^32P]-ATP-3000 mCi/mmol (PerkinElmer)), 5 μg substrate myelin basic protein (MBP) and ± 20 μM inhibitor) in a final reaction volume of 20 μl and incubated at 30°C for 30 min. Reactions were stopped by the addition of 5× Laemmli sample buffer and heated to 98°C for 5 min. Proteins were resolved by 4-12 % SDS-PAGE and stained in Coomassie Brilliant Blue. Kinase activity was detected by phosphorimaging. Imaging was performed on a Typhoon 5 Biomolecular imager (GE Healthcare Life Sciences).

PKG cKD line = assay: Compound susceptibility assay using cKD lines (72 h, Renilla luciferase); type: cell-based, Plasmodium falciparum; settings: PKG cKD line
Text: (§2) To study the interaction between the compounds and PKG (PF3D7_1436600), AAT (PF3D7_1231400), CDPK1 (PF3D7_0217500), TKL3 (PF3D7_1349300), PP1 (PF3D7_1414400), and URP (PF3D7_0808300), cKD lines were generated by fusing the transcripts with RNA aptamers for translation regulation with the TetR/DOZI system ([Ganesan et al., 2016]). The right homology regions (RHR) of each target gene were amplified by PCR, using the primers listed in Table S1 (A), and along with the left homology regions (LHR) were fused to the re-codonized 3'-end region of the gene. Single guide RNA fragments were synthesized using the BioXP™ 3200 System (SGI-DNA; Table S1 (A)) and were cloned into the pSN054 vector ([Nasamu et al., 2019]) to install the C-terminal epitope tags V5 and 2x-hemagglutinin (HA) followed by a 10x RNA aptamer array and the TetR-DOZI expression cassette. This cassette also contained Blasticidin S-deaminase for selection in the parasites and the reporter gene Renilla luciferase (RLuc). The 3'-end of each target was re-codonized to avoid further modifications of the edited locus in the parasite via removal of the PAM site. Donor vector generation was carried out via Gibson assembly, and the final construct sequence was confirmed by restriction digests and Sanger sequencing.
(§3) Transfection into parasites was carried out by preloading erythrocytes with linearized vectors as described previously ([Deitsch et al., 2001]). Briefly, 50 μg of purified plasmid DNA was mixed with human RBC and subjected to 8 square wave electroporation pulses of 365 V for 1 ms each, separated by 0.1 s in a 0.2 cm cuvette. The plasmid DNA preloaded cells were inoculated with NF54 parasites expressing Cas9 and T7 RNA polymerase, maintained in 500 nM anhydrotetracycline (aTc, Sigma-Aldrich 37919), and drug selection with 2.5 μg/mL of Blasticidin (RPI Corp B12150-0.1) was initiated four days after transfection. Emergence of transfectants was monitored via Giemsa smears and RLuc measurements.
(§4) Synchronized ring-stage cKD parasites in varying aTc concentrations (high = 50 nM, intermediate = 1.5 nM, low = 1 nM, and no aTc) were distributed into the drug plate. No-drug treatment and treatment with a lethal dose of chloroquine (200 nM) served as reference controls.

CDPK1 cKD line = assay: as above; type: cell-based, Plasmodium falciparum; settings: CDPK1 cKD line
Text: as §2, §3, §4

TKL3 cKD line = assay: as above; type: cell-based, Plasmodium falciparum; settings: TKL3 cKD line
Text: as §2, §3, §4

URP cKD line = assay: as above; type: cell-based, Plasmodium falciparum
Text: as §2, §3, §4

PP1 cKD line = assay: as above; type: cell-based, Plasmodium falciparum
Text: as §2, §3, §4

AAT cKD line = assay: as above; type: cell-based, Plasmodium falciparum; settings: AAT cKD line
Text: as §2, §3, §4

[2] = biological target: T1, calcium-dependent protein kinase 1 (CDPK1) (PF3D7_0217500) (Plasmodium falciparum, UniProt P62344); assay: Competitive chemoproteomics in Pf lysates (Kinobeads / bead-immobilized compound); type: binding; settings: lysates exposed to 40 μM of the same compound vs vehicle
T1 construct: endogenous in cells; host or cells: P. falciparum asexual blood-stage parasites (trophozoite stage)
T1 sequence (P62344 whole entry): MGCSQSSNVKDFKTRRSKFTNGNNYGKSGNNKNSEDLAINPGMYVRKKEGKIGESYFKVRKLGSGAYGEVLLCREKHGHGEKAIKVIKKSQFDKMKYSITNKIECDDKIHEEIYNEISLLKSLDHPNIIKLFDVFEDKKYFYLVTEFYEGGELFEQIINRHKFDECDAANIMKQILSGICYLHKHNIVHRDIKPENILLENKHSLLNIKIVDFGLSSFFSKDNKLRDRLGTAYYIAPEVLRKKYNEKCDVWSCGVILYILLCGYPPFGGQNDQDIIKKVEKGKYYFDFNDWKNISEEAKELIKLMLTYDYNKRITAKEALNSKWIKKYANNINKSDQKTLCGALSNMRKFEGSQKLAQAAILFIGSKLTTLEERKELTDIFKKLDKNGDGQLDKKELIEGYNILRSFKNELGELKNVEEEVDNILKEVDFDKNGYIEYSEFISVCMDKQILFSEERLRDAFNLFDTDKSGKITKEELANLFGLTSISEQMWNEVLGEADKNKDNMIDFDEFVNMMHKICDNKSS
Description: (§5) Pf protein extracts were prepared as described elsewhere ([Paquet et al., 2017]). Parasite cultures at the trophozoite stage were harvested, washed twice in RPMI 1640 medium (Gibco), and lysed by the addition of saponin to a final concentration of 0.1% for 5 min at room temperature. Free parasites were sedimented by centrifugation (3500 rpm for 10 min), washed three times with phosphate-buffered saline, and stored at −80°C. Parasites were resuspended in cell lysis buffer (50 mM tris-HCl (pH 7.5), 5% glycerol, 1.5 mM MgCl2, […], 1 mM […], 25 mM sodium fluoride, 0.8% NP-40, EDTA-free protease inhibitor cocktail tablets (Roche Diagnostics), and 1 mM DTT) and disrupted by sonication (Sonics Vibra-Cell) using two 30-s cycles on ice at half-amplitude. After centrifugation (140,000g for 1 h at 4°C), soluble proteins were recovered from the supernatants, and protein concentrations of each sample were estimated using the Lowry-based DC assay (Bio-Rad). Samples were stored at −80°C until use.
(§6) Kinobeads were prepared by immobilizing Bis-(III) indolyl-maleimide, purvalanol B, staurosporine and CZC8004, and the analogs of PD173955, sunitinib and vandetanib on NHS-activated Sepharose 4 beads (Amersham) ([Bantscheff et al., 2007]). […] The chemoproteomic affinity-capturing experiments were performed as previously described ([Bantscheff et al., 2011]). Briefly, beads were washed and equilibrated in lysis buffer (50 mM Tris-HCl, pH 7.4, 0.4 % Igepal-CA630, 1.5 mM MgCl2, 5 % Glycerol, 150 mM NaCl, 25 mM NaF, 1 mM Na3VO4, 1 mM DTT, and one cOmplete EDTA-free protease inhibitor tablet (Roche) per 25 mL). The beads were incubated at 4°C for 1 h with either 0.1 ml (0.3 mg) Pf blood stage extract or 0.5 mL (2.5 mg) human cell/tissue protein extract (a mixture of HEK-293, K-562, Hep G2 , and placental cells), which was pre-incubated with compound or DMSO (vehicle control). 10 samples were measured in parallel (TMT 10-plex ([Werner et al., 2014])) to generate values for the affinity of the beads to the bound proteins (“depletion” values, 4 samples) and to generate IC50 values (6 samples) in a single experiment. Apparent dissociation constants were determined after accounting for protein depletion by the beads ([Bantscheff et al., 2011]). Beads were transferred to Filter plates (Durapore PVDF membrane, Merck Millipore), washed with lysis buffer, and eluted with SDS sample buffer.
(§7) Proteins were digested according to a modified single pot solid-phase sample preparation (SP3) protocol ([Hughes et al., 2014]). Peptides were labeled with isobaric mass tags (Thermo Fisher Scientific, Waltham, MA) using 10-plex TMT reagents, enabling relative quantification of 10 conditions in a single experiment ([Werner et al., 2014]). The labeling reactions and LC-MS/MS measurements using Q Exactive Orbitrap or Orbitrap Fusion Lumos mass spectrometers (Thermo Fisher Scientific) were performed as described elsewhere ([Sridharan et al., 2019]). Mascot 2.4 (Matrix Science, Boston, MA) was used for protein identification by using a 10 parts per million mass tolerance for peptide precursors and 20 mD (HCD) mass tolerance for fragment ions. To create the fasta file for mascot searching, all proteins corresponding to the taxonomy ‘Plasmodium falciparum (isolate 3D7)’ were downloaded from Uniprot (release 20170621) and supplemented with common contaminant protein sequences of bovine serum albumin, porcine trypsin and mouse, rat, sheep and dog keratins. To assess the false discovery rate (FDR), “decoy” proteins (reverse of all protein sequences) were created and added to the database, resulting in a database containing a total of 14266 protein sequences, with 50% forward and 50% reverse. For peptide and protein identification of human proteins see ([Sridharan et al., 2019]). […]

[3] = biological target: putative amino acid transporter (AAT) (PF3D7_1231400) (Plasmodium falciparum, UniProt Q8I5A6); assay: as above; type: binding; settings: lysates exposed to 40 μM of the same compound vs vehicle
Chain of putative amino acid transporter (AAT) (PF3D7_1231400) (Q8I5A6 entry or part of it): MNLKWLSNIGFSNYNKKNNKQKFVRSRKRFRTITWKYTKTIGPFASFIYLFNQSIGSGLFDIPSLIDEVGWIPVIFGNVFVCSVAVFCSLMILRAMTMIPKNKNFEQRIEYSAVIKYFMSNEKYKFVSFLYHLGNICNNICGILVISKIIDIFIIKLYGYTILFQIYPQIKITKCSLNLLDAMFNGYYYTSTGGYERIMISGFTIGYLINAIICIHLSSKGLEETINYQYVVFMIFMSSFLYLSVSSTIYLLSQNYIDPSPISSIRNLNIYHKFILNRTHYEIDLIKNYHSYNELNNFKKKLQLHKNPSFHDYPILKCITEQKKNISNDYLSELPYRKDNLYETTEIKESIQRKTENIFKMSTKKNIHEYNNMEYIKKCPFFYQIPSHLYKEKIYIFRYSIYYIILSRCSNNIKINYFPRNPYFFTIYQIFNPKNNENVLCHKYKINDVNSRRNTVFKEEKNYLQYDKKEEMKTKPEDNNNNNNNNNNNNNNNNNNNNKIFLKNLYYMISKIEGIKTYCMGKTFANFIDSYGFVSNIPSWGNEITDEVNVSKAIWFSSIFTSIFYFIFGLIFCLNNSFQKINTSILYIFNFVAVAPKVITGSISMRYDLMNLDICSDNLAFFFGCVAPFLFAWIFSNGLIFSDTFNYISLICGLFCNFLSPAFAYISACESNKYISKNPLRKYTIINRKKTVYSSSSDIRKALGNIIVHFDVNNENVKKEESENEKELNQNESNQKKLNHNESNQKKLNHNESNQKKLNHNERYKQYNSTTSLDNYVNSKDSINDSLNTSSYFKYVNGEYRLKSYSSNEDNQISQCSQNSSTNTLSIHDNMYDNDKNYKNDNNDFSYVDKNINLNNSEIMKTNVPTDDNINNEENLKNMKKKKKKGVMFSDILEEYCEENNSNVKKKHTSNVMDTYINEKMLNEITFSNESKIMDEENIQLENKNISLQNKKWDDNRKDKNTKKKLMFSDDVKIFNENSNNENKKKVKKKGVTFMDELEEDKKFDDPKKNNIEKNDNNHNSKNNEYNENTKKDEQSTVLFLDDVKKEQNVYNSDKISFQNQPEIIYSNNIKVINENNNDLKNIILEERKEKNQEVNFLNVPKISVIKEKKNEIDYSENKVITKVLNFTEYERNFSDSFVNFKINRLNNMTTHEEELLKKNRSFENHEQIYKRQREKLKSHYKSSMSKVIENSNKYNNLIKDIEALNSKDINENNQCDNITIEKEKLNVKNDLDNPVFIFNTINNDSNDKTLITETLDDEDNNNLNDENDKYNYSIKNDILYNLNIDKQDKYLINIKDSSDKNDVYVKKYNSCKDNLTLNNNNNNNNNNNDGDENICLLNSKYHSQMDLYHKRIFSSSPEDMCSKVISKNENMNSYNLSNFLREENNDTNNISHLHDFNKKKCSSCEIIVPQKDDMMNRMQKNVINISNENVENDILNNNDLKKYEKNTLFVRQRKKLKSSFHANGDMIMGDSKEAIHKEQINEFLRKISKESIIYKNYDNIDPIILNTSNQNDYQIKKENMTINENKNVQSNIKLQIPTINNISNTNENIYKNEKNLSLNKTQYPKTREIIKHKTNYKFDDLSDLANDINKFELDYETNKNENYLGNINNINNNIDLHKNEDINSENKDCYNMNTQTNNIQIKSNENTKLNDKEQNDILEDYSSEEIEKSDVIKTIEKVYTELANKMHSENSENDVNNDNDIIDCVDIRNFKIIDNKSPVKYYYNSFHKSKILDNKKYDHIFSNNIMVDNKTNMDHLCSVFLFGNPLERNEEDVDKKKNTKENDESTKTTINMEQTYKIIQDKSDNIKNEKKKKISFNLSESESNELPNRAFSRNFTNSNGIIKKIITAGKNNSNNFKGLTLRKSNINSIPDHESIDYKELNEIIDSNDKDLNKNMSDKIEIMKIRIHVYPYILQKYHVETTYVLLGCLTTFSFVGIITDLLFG
Description: as §5, §6, §7

[4] = biological target: T2, cGMP-dependent protein kinase (PKG) (PF3D7_1436600) (Plasmodium falciparum, UniProt Q8I719); assay: as above; type: binding; settings: lysates exposed to 40 μM of the same compound vs vehicle
T2 construct: The beads were incubated at 4°C for 1 h with either 0.1 ml (0.3 mg) Pf blood stage extract; endogenous in cells; host or cells: P. falciparum asexual blood-stage parasites (trophozoite stage), saponin-freed and lysed
T2 sequence (Q8I719 whole entry): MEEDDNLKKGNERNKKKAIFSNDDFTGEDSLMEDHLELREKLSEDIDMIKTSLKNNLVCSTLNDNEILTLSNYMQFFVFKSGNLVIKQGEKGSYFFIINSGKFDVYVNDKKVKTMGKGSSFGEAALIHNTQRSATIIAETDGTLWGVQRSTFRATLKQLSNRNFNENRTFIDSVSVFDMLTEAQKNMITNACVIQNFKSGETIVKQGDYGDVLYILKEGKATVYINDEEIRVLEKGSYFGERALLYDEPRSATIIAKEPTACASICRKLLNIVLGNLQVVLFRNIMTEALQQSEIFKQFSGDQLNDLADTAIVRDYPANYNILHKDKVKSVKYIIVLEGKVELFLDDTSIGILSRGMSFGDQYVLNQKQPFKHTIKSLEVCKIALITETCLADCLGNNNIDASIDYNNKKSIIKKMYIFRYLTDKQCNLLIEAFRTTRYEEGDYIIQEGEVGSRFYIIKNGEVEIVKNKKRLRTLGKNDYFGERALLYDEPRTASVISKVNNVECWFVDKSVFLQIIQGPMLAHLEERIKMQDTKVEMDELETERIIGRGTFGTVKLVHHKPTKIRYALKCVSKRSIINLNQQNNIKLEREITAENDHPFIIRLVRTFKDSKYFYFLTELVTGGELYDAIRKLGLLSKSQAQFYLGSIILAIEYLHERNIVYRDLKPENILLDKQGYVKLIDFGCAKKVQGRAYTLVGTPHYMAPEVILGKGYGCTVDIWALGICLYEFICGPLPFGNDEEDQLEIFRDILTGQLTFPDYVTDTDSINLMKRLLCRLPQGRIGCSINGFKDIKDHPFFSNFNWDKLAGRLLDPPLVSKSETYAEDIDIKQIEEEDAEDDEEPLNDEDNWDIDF
Description: Parasite cultures at the trophozoite stage were harvested, washed twice in RPMI 1640 medium (Gibco), and lysed by the addition of saponin to a final concentration of 0.1% for 5 min at room temperature. Free parasites were sedimented by centrifugation (3500 rpm for 10 min), washed three times with phosphate-buffered saline, and stored at −80°C. Parasites were resuspended in cell lysis buffer (50 mM tris-HCl (pH 7.5), 5% glycerol, 1.5 mM MgCl2, 1.5 mM NaCl, 1 mM Na3PO4, 25 mM sodium fluoride, 0.8% NP-40, EDTA-free protease inhibitor cocktail tablets (Roche Diagnostics), and 1 mM DTT) and disrupted by sonication (Sonics Vibra-Cell) using two 30-s cycles on ice at half-amplitude. […]
Kinobeads were prepared by immobilizing Bis-(III) indolyl-maleimide, purvalanol B, staurosporine and CZC8004, and the analogs of PD173955, sunitinib and vandetanib on NHS-activated Sepharose 4 beads (Amersham) ([Bantscheff et al., 2007]). […] 10 samples were measured in parallel (TMT 10-plex ([Werner et al., 2014])) to generate values for the affinity of the beads to the bound proteins (“depletion” values, 4 samples) and to generate IC50 values (6 samples) in a single experiment. Apparent dissociation constants were determined after accounting for protein depletion by the beads ([Bantscheff et al., 2011]). […]

B-raf kinase = settings: ref Gamo et al., 2010; cited from earlier work

SMILES	IC50 (Pf Dd2-B2 ABS parasites)	IC50 (sel. Dd2-B2 TKL3T1268R) [nM]	Reduction in TKL3 kinase activity [1]	other results
CC(C)(CN)c1nc(-c2ccc(Cl)c(O)c2)c(-c2ccnc(N)n2)[nH]1 [MMV030734]	65 nM and 65.3 nM	197	no reduction	IC50 (PKG cKD line; Control, [aTc] used 50.0): 20.8 nM; IC50 (PKG cKD line; KD, [aTc] used 1.0): 8.4 nM; IC50 (CDPK1 cKD line; Control, [aTc] used 50.0): 21.1 nM; IC50 (CDPK1 cKD line; KD, [aTc] used 1.0): 18 nM; IC50 (TKL3 cKD line; Control, [aTc] used 50.0): 37.5 nM; IC50 (TKL3 cKD line; KD, [aTc] used 0.0): 80.8 nM; IC50 (URP cKD line; Control, [aTc] used 50.0): 34 nM; IC50 (URP cKD line; KD, [aTc] used 0.0): 44.5 nM; IC50 (PP1 cKD line; Control, [aTc] used 50.0): 29.5 nM; IC50 (PP1 cKD line; KD, [aTc] used 1.5): 36.7 nM; IC50 (AAT cKD line; Control, [aTc] used 50.0): 42.6 nM; IC50 (AAT cKD line; KD, [aTc] used 0.0): 18.5 nM
CC(C)(C)CNCC(C)(C)c1nc(-c2ccc(Cl)c(O)c2)c(-c2ccncc2)[nH]1 [TCMDC-140549]	210 nM	287		
CC(C)(CN)c1nc(-c2ccc(Br)c(O)c2)c(-c2ccncc2)[nH]1 [TCMDC-140680]	85.9 nM	249		
CN1CCC=C(C(=O)NCC(C)(C)c2nc(-c3ccc(Cl)c(O)c3)c(-c3ccncc3)[nH]2)C1 [TCMDC-140700]	394 nM	1190		
CNCC(C)(C)c1nc(-c2ccc(Cl)c(O)c2)c(-c2ccncc2)[nH]1.Cl [TCMDC-140762]	187 nM	443	no reduction	
CC(C)(CNC(=O)[C@H]1CCCN1)c1nc(-c2ccc(Cl)c(O)c2)c(-c2ccncc2)[nH]1 [TCMDC-141060]	180 nM	590		
CC(C)(CNC(=O)[C@H]1CCCCN1)c1nc(-c2ccc(Cl)c(O)c2)c(-c2ccncc2)[nH]1 [TCMDC-141070]	186 nM	717		
CC(C)(CNC(=O)[C@@H]1CCCCN1)c1nc(-c2ccc(Cl)c(O)c2)c(-c2ccncc2)[nH]1.Cl [TCMDC-141079]	250 nM	771	no reduction	
Cl.NCC1(c2nc(-c3ccc(Cl)c(O)c3)c(-c3ccncc3)[nH]2)CCCCC1 [TCMDC-141154]	140 nM	369		CDPK1 pull-down by bead-bound compound [2]: pulled down; AAT pull-down by bead-bound compound [3]: pulled down; PKG pull-down by bead-bound compound [4]: pulled down
CC(C)(CN)c1cc(-c2ccc(Cl)c(O)c2)c(-c2ccncc2)o1.Cl [TCMDC-141334]	277 nM	599		Reported kinase inhibitor activity (B-raf kinase): B-raf kinase inhibitor
